Like-named read-outs stand apart in the source and are kept apart here. Non-standard residues stand in square brackets, D forms with d. Residues, ends and D or L forms follow the SMILES beside them. *: point of attachment. pY = N[C@@H](Cc1ccc(OP(=O)(O)O)cc1)C(=O)O; Caffeoyl = O=C(/C=C/c1ccc(O)c(O)c1)*
What was measured:
PTPN11(SH2dom.N-term.) = target: T1, PTPN11(SH2dom.N-term.) (Homo sapiens, UniProt Q06124); assay type: binding; details: primary screen, 10 μM
T1 construct: SH2dom.N-term. denotes SH2 domain closest to N-terminus of protein; made in house; host or cells: HEK293 (transient transfection, unpurified extract)
T1 sequence (Q06124 6-102 limits assumed): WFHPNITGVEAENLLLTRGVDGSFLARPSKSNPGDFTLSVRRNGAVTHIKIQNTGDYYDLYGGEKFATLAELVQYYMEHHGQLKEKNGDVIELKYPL

[1] = target: T2, STAT3(D661Y)-nonphosphorylated (Homo sapiens, UniProt P40763, D661Y); test: biochemical; assay type: binding; details: for remaining activity at 10 µM: primary screen
T2 construct: made in house; host or cells: HEK293 (transient transfection), unpurified extract, dephosphorylated by endogenous phosphatases

VAV3 = target: T3, VAV3 (Homo sapiens, UniProt Q9UKW4); test: biochemical; assay type: binding; details: for remaining activity at 10 µM: primary screen
T3 construct: made in house; host or cells: HEK293 (transient transfection), unpurified extract
T3 sequence (Q9UKW4 1-847): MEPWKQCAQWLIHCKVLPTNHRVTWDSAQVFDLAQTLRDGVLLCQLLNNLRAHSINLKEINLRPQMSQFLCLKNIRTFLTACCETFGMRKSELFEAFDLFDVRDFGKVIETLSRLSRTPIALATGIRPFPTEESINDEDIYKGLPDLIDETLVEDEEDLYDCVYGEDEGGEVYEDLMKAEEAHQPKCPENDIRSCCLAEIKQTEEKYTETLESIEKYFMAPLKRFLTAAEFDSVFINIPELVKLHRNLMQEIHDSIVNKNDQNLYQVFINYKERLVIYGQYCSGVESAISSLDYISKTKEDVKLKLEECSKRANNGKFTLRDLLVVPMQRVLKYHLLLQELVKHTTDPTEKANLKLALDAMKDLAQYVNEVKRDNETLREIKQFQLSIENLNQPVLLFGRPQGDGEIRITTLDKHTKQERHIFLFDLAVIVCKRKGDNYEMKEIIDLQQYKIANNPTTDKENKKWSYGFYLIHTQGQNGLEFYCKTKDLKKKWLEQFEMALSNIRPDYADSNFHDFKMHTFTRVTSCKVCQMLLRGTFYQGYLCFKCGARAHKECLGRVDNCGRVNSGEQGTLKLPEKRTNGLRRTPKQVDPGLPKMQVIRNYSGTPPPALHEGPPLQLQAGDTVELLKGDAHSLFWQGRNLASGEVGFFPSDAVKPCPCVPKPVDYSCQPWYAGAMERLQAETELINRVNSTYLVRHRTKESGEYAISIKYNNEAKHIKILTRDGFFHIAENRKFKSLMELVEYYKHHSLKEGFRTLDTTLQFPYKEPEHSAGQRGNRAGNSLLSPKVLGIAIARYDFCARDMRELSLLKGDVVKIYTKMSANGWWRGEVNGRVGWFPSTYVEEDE

PLCG2(SH2dom.N-term.) = target: T4, PLCG2(SH2dom.N-term.) (Homo sapiens, UniProt P16885); test: biochemical; assay type: binding; details: for remaining activity at 10 µM: read-out: percent of DMSO vehicle control
T4 construct: SH2dom.N-term. denotes SH2 domain closest to N-terminus of protein; made in house; host or cells: HEK293 (transient transfection, unpurified extract)
T4 sequence (P16885 532-635 limits assumed): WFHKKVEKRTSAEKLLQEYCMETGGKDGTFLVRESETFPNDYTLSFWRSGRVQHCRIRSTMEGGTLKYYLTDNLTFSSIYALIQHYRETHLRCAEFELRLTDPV

TXK = target: T5, TXK (Homo sapiens, UniProt P42681); test: biochemical; assay type: binding; details: for remaining activity at 10 µM: read-out: percent of DMSO vehicle control
T5 construct: made in house; host or cells: HEK293 (transient transfection), unpurified extract
T5 sequence (P42681 1-527): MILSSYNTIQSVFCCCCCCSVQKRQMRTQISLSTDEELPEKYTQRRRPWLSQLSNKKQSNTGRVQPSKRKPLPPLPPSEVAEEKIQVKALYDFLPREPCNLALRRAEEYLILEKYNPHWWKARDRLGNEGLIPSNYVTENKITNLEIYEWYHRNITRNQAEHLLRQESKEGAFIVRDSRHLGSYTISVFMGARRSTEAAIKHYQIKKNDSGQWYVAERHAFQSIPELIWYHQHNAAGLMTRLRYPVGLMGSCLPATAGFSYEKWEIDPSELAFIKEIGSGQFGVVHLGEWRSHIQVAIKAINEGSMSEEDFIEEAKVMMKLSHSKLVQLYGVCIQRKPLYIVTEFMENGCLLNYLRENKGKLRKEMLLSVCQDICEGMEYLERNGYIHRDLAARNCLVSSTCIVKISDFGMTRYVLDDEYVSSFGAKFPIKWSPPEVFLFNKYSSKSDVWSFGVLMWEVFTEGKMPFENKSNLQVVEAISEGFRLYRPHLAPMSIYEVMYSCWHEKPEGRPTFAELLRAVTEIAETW

GRAP = target: T6, GRAP (Homo sapiens, UniProt Q13588); test: biochemical; assay type: binding; details: read-out: percent of DMSO vehicle control; for remaining activity at 10 µM: primary screen
T6 construct: the DNA-tagged SH2 domain concentrations used in this study were <0.1 nM; made in house; host or cells: HEK293 (transient transfection; unpurified extract)

YES = target: T7, YES (Homo sapiens, UniProt P07947); test: biochemical; assay type: binding; details: for remaining activity at 10 µM: read-out: percent of DMSO vehicle control
T7 construct: the DNA-tagged SH2 domain concentrations used in this study were <0.1 nM; made in house; host or cells: HEK293 (transient transfection; unpurified cell extract)

CBL = target: T8, CBL (Homo sapiens, UniProt P22681); test: biochemical; assay type: binding
T8 construct: the DNA-tagged SH2 domain concentrations used in this study were <0.1 nM; made in house; host or cells: HEK293 (transient transfection; unpurified extract)
T8 sequence (P22681 249-351 limits assumed): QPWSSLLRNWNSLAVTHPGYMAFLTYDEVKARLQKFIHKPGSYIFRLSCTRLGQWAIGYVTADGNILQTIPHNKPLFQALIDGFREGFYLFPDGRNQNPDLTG

STAT6 [2] = system: STAT6; set-up: method as in Mandal et al., Journal of Medicinal Chemistry, 2015; details: FP; ref Mandal et al., Journal of Medicinal Chemistry, 2015; cited from earlier work
STAT6 [3] = target: STAT6; set-up: method as in earlier work; details: FP; ref Elumalai et al., Angewandte Chemie International Edition, 2015; cited from earlier work
[4] = read-out: percent of DMSO vehicle control

Structure (SMILES)	percent of DMSO vehicle control (PTPN11(SH2dom.N-term.))	remaining activity at 10 µM [1, 4]	remaining activity at 10 µM (VAV3; [4])	remaining activity at 10 µM (PLCG2(SH2dom.N-term.); primary screen, 10 μM)	remaining activity at 10 µM (TXK; primary screen, 10 μM)	remaining activity at 10 µM (GRAP)	remaining activity at 10 µM (YES; primary screen, 10 μM)	Kd (CBL)	also measured
O=C(CCl)Nc1cccc(CNC(=O)[C@H](Cc2ccc(OP(=O)(O)O)cc2)NC(=O)Cc2ccc(F)cc2)c1 [MN551]	85.0±0.9%	171%	113%	109%	89.1%	48.7%	46.5 ± 2.1%		
CC[C@H](C)[C@H](NC(=O)[C@H](CCC(=O)O)NC(=O)[C@H](CCC(=O)O)NC(=O)[C@H](Cc1ccc(OP(=O)(O)O)cc1)NC(=O)/C=C/c1ccc(O)c(O)c1)C(=O)N[C@@H](CCC(=O)O)C(=O)O [Caffeic acid-pYEEIE] (Caffeoyl-[pY]EEIE-OH)	92.8±10.0%							11000 nM	percent of DMSO vehicle control at 10 µM [1, 4]: 108 ± 9.3%; Kd (VAV3): 70 ± 12 nM; percent of DMSO vehicle control at 10 µM (VAV3; [4]): 0.4 ± 0.1%; Kd (PLCG2(SH2dom.N-term.)): 1070 ± 320 nM; remaining activity at 10 µM (PLCG2(SH2dom.N-term.)): 1.2 ± 0.1%; Kd (TXK): 950 ± 250 nM; remaining activity at 10 µM (TXK): 2.7 ± 0.3%; percent of DMSO vehicle control at 10 µM (GRAP): 109.9 ± 0.3%; Kd (YES): 1 ± 0.47 nM; remaining activity at 10 µM (YES): 0%
C/C(=C\C(=O)N[C@H](C(=O)N1CCC[C@H]1C(=O)N(c1ccccc1)c1ccc(I)cc1)C(C)(C)C)c1ccc(OP(=O)(O)O)cc1 [STAT6-IN-1]	76.7±1.3%	0%	40.3 ± 1.3%	20.7 ± 29.3%	87.1 ± 5.9%	52 ± 15.9%	29.5%	8100 ± 1300 nM	IC50 (STAT6 [2]): 28 nM; Kd ([1]; dose-response, read-out: KD): 1000 ± 800 nM; Kd (PLCG2(SH2dom.N-term.); dose-response, read-out: KD): 550 ± 14 nM; Kd (YES; dose-response, read-out: KD): 9200 ± 380 nM
O=C(COc1ccc2cc(C(=O)Nc3ccccc3)ccc2c1)NCc1ccc(OP(=O)(O)O)c(OP(=O)(O)O)c1 [Stafib-1]	79.2±4.6%	157%	102%	72.6 ± 27.2%	144%	76.2 ± 27%	63.1 ± 24.3%		Ki (STAT6 [3]): 3470 nM

Source: publication PMC12951562, “SH2scan: Mapping SH2 Domain-Ligand Binding Selectivity for Inhibitors and Degraders” (Journal of Medicinal Chemistry, 2026)
